Laboratory results as given in US20250215029A1 (Recludix Pharma, Inc., priority 2022, published 2025).

These molecules were tested against T1, pY641-STAT6 in PBMC (Homo sapiens, UniProt P42226) (assay: MSD-pSTAT-PBMC Assay (pSTAT6, IL-4 stimulated)). Conditions: PBMC, compound 3 hrs, then 1 ng/mL IL-4 for 10 min; Table 115; read-out: STAT6.
T1 construct: Cryopreserved Peripheral Blood Mononuclear Cells (PBMC) are from AllCells; host or cells: cryopreserved PBMC
T1 sequence (P42226 1-847): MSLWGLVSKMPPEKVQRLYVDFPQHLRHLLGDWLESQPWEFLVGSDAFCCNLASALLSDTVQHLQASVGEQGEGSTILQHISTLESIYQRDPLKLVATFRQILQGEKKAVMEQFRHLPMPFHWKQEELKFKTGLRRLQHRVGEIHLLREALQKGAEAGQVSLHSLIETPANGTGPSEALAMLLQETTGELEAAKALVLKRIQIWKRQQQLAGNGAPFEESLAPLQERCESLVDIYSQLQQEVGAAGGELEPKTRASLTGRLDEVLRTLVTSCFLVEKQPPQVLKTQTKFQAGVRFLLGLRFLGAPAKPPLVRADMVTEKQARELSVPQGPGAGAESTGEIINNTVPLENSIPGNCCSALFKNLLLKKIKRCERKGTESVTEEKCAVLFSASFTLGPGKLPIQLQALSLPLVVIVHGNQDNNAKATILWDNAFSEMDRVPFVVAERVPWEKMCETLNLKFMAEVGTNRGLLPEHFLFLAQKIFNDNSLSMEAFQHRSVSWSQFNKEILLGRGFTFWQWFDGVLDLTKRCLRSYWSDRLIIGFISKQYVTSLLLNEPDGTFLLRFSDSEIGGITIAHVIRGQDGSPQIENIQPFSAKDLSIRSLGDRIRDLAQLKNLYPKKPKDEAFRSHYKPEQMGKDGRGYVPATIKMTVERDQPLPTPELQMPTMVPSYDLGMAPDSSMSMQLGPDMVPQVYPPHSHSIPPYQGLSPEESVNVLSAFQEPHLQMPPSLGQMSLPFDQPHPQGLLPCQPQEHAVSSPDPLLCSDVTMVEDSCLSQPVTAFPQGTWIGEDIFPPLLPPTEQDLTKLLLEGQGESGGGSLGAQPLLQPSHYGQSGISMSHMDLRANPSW
Type: cell-based
Procedure, shortened: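 Inhibition of cytokine-induced STAT phosphorylation was measured in recovered human PBMC after 3 hrs compound exposure and a 10 min IL-4 (1 ng/mL) or IL-6 (10 ng/mL) challenge. MSD detection of pY641-STAT6 or pY705-STAT3 yielded IC50 values.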
With CCCOC(=O)[C@H](C)NP(=O)(Oc1ccccc1)[C@@H](F)c1ccc2sc(C(=O)N[C@H]3CCCC[C@H]4CC[C@@H](C(=O)N5C[C@H](c6cccc(Cl)c6)[C@@H](C#N)C56CC6)N4C3=O)cc2c1 (stereo partly shown) [Compound 344] the IC50 was less than 0.1 µM.
Molecule “(4-methyl- 112,212,4- triazolidin-3- yl)methyl (((1R)- fluoro(2- (((3S,6S,9aS)-5- oxo-3-((R)-6- (pyridin-3-yl)-4- azaspiro[2.4]heptane- 4- carbonyl)octahydro- 1H-pyrrolo[1,2- a]azepin-6- yl)carbamoyl)-2,3- dihydrobenzo[b] thiophen-5- yl)methyl)(phenoxy) phosphoryl)-L- alaninate [Compound 373]” has an IC50 greater than 3 µM.
CCCOC(=O)[C@H](C)NP(=O)(Cc1ccc2sc(C(=O)N[C@H]3CCCC[C@H]4CC[C@@H](C(=O)N5C[C@@H](C#N)[C@H](c6ccccc6)C5)N4C3=O)cc2c1)Oc1ccccc1 (stereo partly shown) [Compound 444] gave an IC50 of 0.1 to 1 µM.

Same assay, conditions: STAT6, PBMC, compound 3 hrs, then 1 ng/mL IL-4 for 10 min; Table 115
Molecule CCCOC(=O)[C@H](C)NP(=O)(Oc1ccccc1)C(F)c1ccc2sc(C(=O)N[C@H]3CCC[C@H]4CC[C@@H](C(=O)N5CC(c6cccnc6)CC56CC6)N4C3=O)cc2c1 (stereo partly drawn) [Compound 456, propyl ((fluoro(2-(((3S,6S,9aS)-5-oxo-3-(6-(pyridin-3-yl)-4-azaspiro[2.4]heptane-4-carbonyl)octahydro-1H-pyrrolo[1,2-a]azepin-6-yl)carbamoyl)benzo [b]thiophen-5-yl)methyl)(phenoxy)phosphoryl)-L-alaninate] has an IC50 of less than 0.1 µM.
For CCCOC(=O)[C@H](C)NP(=O)(Oc1ccccc1)C(F)c1ccc2sc(C(=O)N[C@H]3CCCC[C@H]4CC[C@@H](C(=O)N5C(=O)N(c6cccc7c6OC(F)(F)O7)C(=O)C56CC6)N4C3=O)cc2c1 (stereo partly drawn) [Compound 982, propyl (((2-(((3S,6S,10aS)-3-(6-(2,2-difluorobenzo[d][1, 3]dioxol-4-yl)-5,7-dioxo-4,6-diazaspiro [2.4]heptane-4-carbonyl)-5-oxodecahydropyrrolo [1,2-a]azocin-6-yl)carbamoyl)benzo [b]thiophen-5-yl)fluoromethyl) (phenoxy)phosphoryl)-L-alaninate], the IC50 was greater than 3 µM.
Molecule C[C@H](NP(=O)(Oc1ccccc1)[C@@H](F)c1ccc2sc(C(=O)N[C@H]3CCC[C@H]4CC[C@@H](C(=O)N5C[C@@H](c6cccnc6)CC56CC6)N4C3=O)cc2c1)C(=O)OCc1nnnn1C (stereo partly drawn) [Compound 356, (1-methyl-1H-tetrazol-5-yl)methyl (((R)-fluoro(2-(((3S,6S,9aS)-5-oxo-3-((R)-6-(pyridin-3-yl)-4-azaspiro[2.4]heptane-4-carbonyl)octahydro-1H-pyrrolo[1,2-a]azepin-6-yl)carbamoyl)benzo [b]thiophen-5-yl)methyl)(phenoxy)phosphoryl)-L-alaninate] has an IC50 of 0.1 to 1 µM.
Molecule CCCOC(=O)[C@H](C)NP(=O)(Oc1ccccc1)[C@@H](F)c1ccc2sc(C(=O)N[C@H]3CC[C@H](N4CCC4)C[C@H]4CC[C@@H](C(=O)N5C[C@@H](c6ccccc6)[C@H](C#N)C56CC6)N4C3=O)cc2c1 (stereo partly drawn) [Compound 489, propyl (((R)-(2-(((3S,6S,9S,10aR)-9-(azetidin-1-yl)-3-((6R,7S)-7-cyano-6-phenyl-4-azaspiro[2.4]heptane-4-carbonyl)-5-oxodecahydropyrrolo [1,2-a]azocin-6-yl)carbamoyl)benzo [b]thiophen-5-yl)fluoromethyl) (phenoxy)phosphoryl)-L-alaninate] has an IC50 of 0.1 to 1 µM.
With COCCOC(=O)[C@H](C)NP(=O)(Oc1ccccc1)[C@@H](F)c1ccc2sc(C(=O)N[C@H]3CCC[C@H]4CC[C@@H](C(=O)N5C[C@@H](c6cccnc6)CC56CC6)N4C3=O)cc2c1 (stereo partly drawn) [Compound 480, 2-methoxyethyl (((R)-fluoro(2-(((3S,6S,9aS)-5-oxo-3-((R)-6-(pyridin-3-yl)-4-azaspiro[2.4]heptane-4-carbonyl)octahydro-1H-pyrrolo[1,2-a]azepin-6-yl)carbamoyl)benzo [b]thiophen-5-yl)methyl)(phenoxy)phosphoryl)-L-alaninate] the IC50 was less than 0.1 µM.
For CC(C)OC(=O)[C@H](C)NP(=O)(Cc1ccc2ccc(C(=O)N[C@H]3CCCC[C@H]4CC[C@@H](C(=O)N5C[C@H](c6cc[nH]c(=O)c6)CC56CC6)N4C3=O)cc2c1)Oc1ccccc1 (stereo partly drawn) [Compound 423, isopropyl (((7-(((3S,6S,10aS)-5-oxo-3-((S)-6-(2-oxo-1,2-dihydropyridin-4-yl)-4-azaspiro[2.4]heptane-4-carbonyl)decahydropyrrolo[1,2-a]azocin-6-yl)carbamoyl)naphthalen-2-yl)methyl)(phenoxy)phosphoryl)-L-alaninate], the IC50 was 0.1 to 1 µM.
CCCOC(=O)[C@H](C)NP(=O)(Oc1ccccc1)C(F)c1ccc2sc(C(=O)N[C@H]3CCCC[C@H]4CC[C@@H](C(=O)N5CC(c6cccnc6)CC56CC6)N4C3=O)cc2c1 (stereo partly drawn) [Compound 448, propyl ((fluoro(2-(((3S,6S,10aS)-5-oxo-3-(6-(pyridin-3-yl)-4-azaspiro[2.4]heptane-4-carbonyl)decahydropyrrolo[1,2-a]azocin-6-yl)carbamoyl)benzo [b]thiophen-5-yl)methyl)(phenoxy)phosphoryl)-L-alaninate] showed an IC50 of less than 0.1 µM.
CCCOC(=O)[C@H](C)NP(=O)(Oc1ccccc1)[C@H](F)c1ccc2sc(C(=O)N[C@H]3CC[C@H](N4CCC4)C[C@H]4CC[C@@H](C(=O)N5C[C@@H](c6ccccc6)[C@H](C#N)C56CC6)N4C3=O)cc2c1 (stereo partly drawn) [Compound 492, propyl (((S)-(2-(((3S,6S,9S,10aR)-9-(azetidin-1-yl)-3-((6R,7S)-7-cyano-6-phenyl-4-azaspiro[2.4]heptane-4-carbonyl)-5-oxodecahydropyrrolo [1,2-a]azocin-6-yl)carbamoyl)benzo [b]thiophen-5-yl)fluoromethyl) (phenoxy)phosphoryl)-L-alaninate] showed an IC50 of less than 0.1 µM.
With CCCOC(=O)[C@H](COC)NP(=O)(Oc1ccccc1)[C@@H](F)c1ccc2sc(C(=O)N[C@H]3CCCC[C@H]4CC[C@@H](C(=O)N5C[C@@H](c6cccnc6)CC56CC6)N4C3=O)cc2c1 (stereo partly drawn) [Compound 384, propyl N-(((R)-fluoro(2-(((3S,6S,10aS)-5-oxo-3-((R)-6-(pyridin-3-yl)-4-azaspiro[2.4]heptane-4-carbonyl)decahydropyrrolo[1,2-a]azocin-6-yl)carbamoyl)benzo [b]thiophen-5-yl)methyl)(phenoxy)phosphoryl)-O-methyl-L-serinate] the IC50 was less than 0.1 µM.
Work on CCCOC(=O)[C@H](C)NP(=O)(Oc1ccccc1)C(F)c1ccc2ccc(C(=O)N[C@H]3CCCC[C@H]4CC[C@@H](C(=O)N5CCC(c6ccn(C)c(=O)c6)C5)N4C3=O)cc2c1 (stereo partly drawn) [Compound 450, propyl ((fluoro(7-(((3S,6S,10aS)-3-(3-(1-methyl-2-oxo-1,2-dihydropyridin-4-yl)pyrrolidine-1-carbonyl)-5-oxodecahydropyrrolo [1,2-a]azocin-6-yl)carbamoyl)naphthalen-2-yl)methyl)(phenoxy)phosphoryl)-L-alaninate] yielded an IC50 of 0.1 to 1 µM.
Work on CCCOC(=O)[C@H](C)NP(=O)(Oc1ccccc1)[C@@H](F)c1ccc2sc(C(=O)N[C@H]3CCCC[C@H]4CC[C@@H](C(=O)N5C(=O)N(c6ccc(OC)nc6)C(=O)C56CC6)N4C3=O)cc2c1 (stereo partly drawn) [Compound 329, propyl (((R)-fluoro(2-(((3S,6S,10aS)-3-(6-(6-methoxypyridin-3-yl)-5,7-dioxo-4,6-diazaspiro[2.4]heptane-4-carbonyl)-5-oxodecahydropyrrolo [1,2-a]azocin-6-yl)carbamoyl)benzo [b]thiophen-5-yl)methyl)(phenoxy)phosphoryl)-L-alaninate] yielded an IC50 greater than 3 µM.
Molecule CCCOC(=O)[C@H](C)NP(=O)(Oc1ccccc1)C(F)c1ccc2ccc(C(=O)N[C@H]3CCCC[C@H]4CC[C@@H](C(=O)N5C[C@H](c6ccccc6)[C@@H](C#N)C56CC6)N4C3=O)cc2c1 (stereo partly drawn) [Compound 442, propyl (((7-(((3S,6S,10aS)-3-((6S,7R)-7-cyano-6-phenyl-4-azaspiro[2.4]heptane-4-carbonyl)-5-oxodecahydropyrrolo [1,2-a]azocin-6-yl)carbamoyl)naphthalen-2-yl)fluoromethyl) (phenoxy)phosphoryl)-L-alaninate] has an IC50 of less than 0.1 µM.

Same assay, conditions: read-out: STAT6; PBMC, compound 3 hrs, then 1 ng/mL IL-4 for 10 min; Table 115
With CCCOC(=O)[C@H](C)NP(=O)(Oc1ccccc1)C(F)c1ccc2sc(C(=O)N[C@H]3CCCC[C@H]4CC[C@@H](C(=O)N5C[C@@H](C#N)[C@H](c6ccccc6)C5)N4C3=O)cc2c1 (single isomer, unassigned) [Compound 317] the IC50 was less than 0.1 µM.
